In patent publication US20240108585A1, “COMPOSITIONS COMPRISING LIPID-BASED NANOPARTICLES FOR TREATING DIABETES MELLITUS” (SDG, Inc., priority 2018, published 2024):

Assays:
[1] = test system: adult Type 1 diabetes mellitus; test: Example 2 pump study: randomized double-blinded two-way crossover, HDV lispro vs lispro by insulin pump, CGM and mixed meal test; assay type: in vivo, human; conditions: baseline HbA1c 7.19; 3-week pump period; 7 subjects
Text: A study was run comparing the efficacy of HDV lispro vs. lispro to treat adult Type 1 diabetes mellitus when administered by pump. The study involved 7 subjects and was a randomized, double-blinded two-way crossover study. The dosing duration was 3-week on standard insulin x 3-week on HDV-insulin with infusion via standard commercial insulin pumps, and a mixed meal test was employed; continuous glucose monitoring was achieved via blinded Dexcom G4 Platinum Continuous Glucose Monitor. The baseline HbA1c was 7.19, and the ending HbA1c was 7.21 (for the HDV group) and 7.08 (for the lispro group).

[2] = test system: type 1 diabetes mellitus (T1DM); test: ISLE-1: 26-week Phase 2b multicenter randomized double-blind non-inferiority trial, HDV-L vs LIS, multiple daily injections
Text: ISLE-1 was a 26-week, Phase 2b, multicenter, randomized, double-blind, non-inferiority trial.
ISLE-1 was a 26-week, Phase 2b, multicenter, randomized, double-blind, trial in T1DM treated with multiple daily injections (MDI) of insulin.
Main inclusion criteria were: age ≥18 years; T1D for ≥12 months; A1c ≥7.0 ([…]) to ≤10.5% (≤91 mmol/mol); treated with insulins glargine or detemir for basal coverage. Main exclusion criteria were total insulin dose ≥1.5 IU/kg/day or NPH insulin as basal.
Prandial dosing of HDV-lispro or control lispro was 15 minutes prior to the meal, and basal insulins were administered either as a single daily dose or a divided twice per day dosing, every 12 hours.
Informed of −10% dilution, participants continued their current insulin parameters. Hypoglycemia was recorded on Case Report Forms (CRFs) based on subject diaries and SMBG records, subjectively investigator-judged as “mild,” “moderate,” “severe,” or “life threatening.” Blinded continuous glucose monitoring (CGM) (Dexcom G4) was used for 5-7 days to assess glucose at baseline, weeks 13 and 26. A1c, lipids, and liver enzymes were measured approximately monthly. Liver fat content MRIs were performed in a subset.
The intent to treat (ITT) population included all randomized subjects receiving at least one dose of study treatment. Safety analyses included all randomized subjects. […] Mean A1c change was analyzed using ANCOVA within intent-to-treat (ITT) cohort at each visit. Post hoc subgroup analyses (baseline A1c <8.5% vs ≥8.5%) were performed, this cut point corresponding to pre-specified randomization strata. Direct likelihood models were used for treatment arm A1c comparisons, % time <54 mg/dL, bolus insulin, and basal insulin within the two A1c subgroups. Poisson regression models adjusting for site as random effect compared “severe” hypoglycemia incidence rates within A1c groups, testing for baseline A1c by treatment group interaction. Event number/subject was truncated at 15, accounting for extreme outliers.

[3] = test system: adult Type 1 diabetes mellitus; test: Example 3: double-blinded randomized six-week parallel study, HDV lispro vs lispro, multiple daily injections, CGM; assay type: in vivo, human
Text: A double-blinded, randomized study was run comparing the efficacy of HDV lispro vs. lispro to treat adult Type 1 diabetes mellitus. The study involved 43 (1:1) subjects (who were considered to be in good control, with HbA1c levels between 7-8%) and was a six-week parallel design study, with multiple daily injections. The baseline HbA1c was 7.35 (HDV group) and 7.39 (lispro group). The primary endpoint was a two-hour reduction in glucose time out of range.

For insulin lispro, the “ending HbA1c” value [1] was 7.08, the “treatment-related serious adverse events” value ([2]; 26 weeks) was “No treatment-related serious adverse events were reported” and the “Mean change in A1c baseline to Week 26” value ([2]; all subjects, HDV-L n=118, LIS n=58) was −0.16%. For the same substance, the “change in A1c over time” value ([2]; baseline A1c <8.5%) was “little change”, the “time <54 mg/dL during Week 26 (median)” value ([2]; baseline A1c <8.5%, CGM, p=0.16) was 0.6% and the “CRF-reported incidence of "severe" hypoglycemia” value ([2]; baseline A1c <8.5%, p=0.001, unit not given) was 21. The “percentage time <54 mg/dL during Week 26 (median)” value ([2]; baseline A1c >8.5%, CGM, p=0.09) was 2.6%, the “change in total cholesterol” value ([2]; over the study) was 7.3 mg/dL and the “"life threatening" hypoglycemia events” value ([2]; whole study) was “No “life threatening” events were recorded”. For the same substance, the “Time in Range (70-180 mg/dL), increase” value [3] was “*No Change in Lispro Group” and the “Time in Target (70-140 mg/dL), increase” value [3] was “*No Change in Lispro Group”.
